Assay results reported in patent US20080108611A1, “SUBSTITUTED THIENOPYRIMIDINE KINASE INHIBITORS” (priority 2006, published 2008).

Legend:
[1] = tested on: HeLa cervical adenocarcinoma; test: Cell Proliferation Inhibition Assay (14C-thymidine incorporation), HeLa; assay type: cell-based; settings: Homo sapiens; HeLa cells
Procedure: (§1) The ability of a test compound to inhibit unregulated cell proliferation was determined by measuring incorporation of ^14C-labelled thymidine into newly synthesized DNA within cell lines derived from carcinomas originating from several tissues. Accordingly, the anti-proliferative effect of a compound on cells with a variety of phenotypes may be determined.
(§2) Carcinoma cell lines include those such as HeLa cervical adenocarcinoma (American Type Culture Collection (ATCC), Virginia, Cat. #CCL-2), A375 malignant melanoma (ATCC CRL-1619), SK-OV-3 ovarian adenocarcinoma (ATCC HTB-77), HCT-116 colon carcinoma (CCL-247), PC-3 prostate adenocarcinoma (ATCC CRL-1435), and MDA-MB-231 (Xenogen Corp.)
(§3) The carcinoma cells were trypsinized and counted. The cells (3000-8000 count) were added to each well of a 96-well CytoStar tissue culture treated scintillating microplate (Amersham #RPNQ0160) in complete medium (100 μL) and the plate was then incubated in complete medium for 24 hrs at 37° C. in an […] atmosphere containing 5% CO2. Test compound (1 μL) in 100% DMSO was added to the plate test-wells with DMSO only added to control-wells. The plate was incubated in complete medium for a second 24 hr period at 37° C. in an atmosphere containing 5% CO2.
(§4) An aliquot of a solution of methyl ^14C-thymidine (56 mC/mmol) (NEN #NEC568 or Amersham #CFA532) and complete medium (20 uL to provide 0.2 μCi/well) was then added to each well and the plate was incubated for a third 24 hr period at 37° C. in an atmosphere containing 5% CO2. The plate contents were then discarded, the plate was washed twice with PBS (200 μL) and then PBS (200 μL) was added to each well. The plate was sealed and the degree of methyl ^14C-thymidine incorporation was quantified on a Packard Top Count.

VEGF-R2 = target: T1, VEGF-R2 (Rattus norvegicus, UniProt O08775); test: VEGF-R2 Screening Assay; assay type: biochemical; settings: rat VEGF-R2 kinase domain, 10 μM ATP
T1 construct: polyhistidine (N)
T1 sequence (O08775 786-1343): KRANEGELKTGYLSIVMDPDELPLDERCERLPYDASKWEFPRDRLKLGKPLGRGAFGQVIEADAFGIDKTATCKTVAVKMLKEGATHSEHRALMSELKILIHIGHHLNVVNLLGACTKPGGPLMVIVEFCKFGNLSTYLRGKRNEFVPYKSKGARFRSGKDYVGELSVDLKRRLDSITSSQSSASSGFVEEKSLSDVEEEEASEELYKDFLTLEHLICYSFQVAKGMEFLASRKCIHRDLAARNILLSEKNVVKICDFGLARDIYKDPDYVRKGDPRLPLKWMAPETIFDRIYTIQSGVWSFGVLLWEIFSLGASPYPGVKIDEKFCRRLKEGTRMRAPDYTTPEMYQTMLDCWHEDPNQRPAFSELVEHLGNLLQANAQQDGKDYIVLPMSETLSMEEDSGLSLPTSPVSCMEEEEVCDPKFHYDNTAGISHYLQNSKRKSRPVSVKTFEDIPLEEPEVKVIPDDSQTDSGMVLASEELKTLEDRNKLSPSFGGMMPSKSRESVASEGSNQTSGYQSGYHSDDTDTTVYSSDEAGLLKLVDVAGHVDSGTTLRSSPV
Procedure: (§5) A kinase reaction mixture was prepared containing 50 mM Tris-HCl at pH 8, 10 mM MgCl2, 0.1 mM Na3PO4, 1 mM DTT, 10 μM ATP, 0.025 μM biotinylated histone-H1 peptide substrate and 0.2 μCuries per well ^33P-γ-ATP (2000-3000 Ci/mmol). 70 μL of the kinase reaction mixture was dispensed into the well of a Streptavidin FlashPlate.
(§6) Test compound stock in 100% DMSO (1 μL) was added to the wells resulting in a final concentration of 1% DMSO in the reaction with a 100 μL final reaction volume. Each enzyme was diluted in 50 mM Tris-HCl pH=8.0, 0.1% BSA and 30 μL was added to each well to initiate the reaction. The reaction was incubated for one hour at 30° C. At the end of the 1 hr incubation, the reaction was terminated by aspirating the mixture from the plate and washing the wells twice with PBS containing 100 mM EDTA. The biotinylated peptide substrate became immobilized on the Flashplate™ and the incorporation of ^33P-γ-ATP was measured by reading the plate on a scintillation counter. Inhibition of the enzymatic activity was measured by observing a reduced amount of ^33P-γ-ATP incorporated into the immobilized peptide.
The VEGF-R2 enzyme is a fusion protein containing a polyhistidine tag at the N terminus followed by amino acids 786 to 1343 of the rat VEGF-R2 kinase domain (Accession number U93306). The assay used 150 ng of the N-terminal biotinylated peptide biotin-KHKKLAEGSAYEEV-amide (VEGF-R2) per well.
(§7) The IC50 was derived according to the procedure described in Example 1.

A375 malignant melanoma = test: Cell Proliferation Inhibition Assay (14C-thymidine incorporation), A375; assay type: cell-based; settings: Homo sapiens, A-375; A375 cells
Procedure: as §1, §2, §3, §4

HER-2 = target: T2, HER-2 (Homo sapiens, UniProt P04626); test: HER-2 Kinase Assay; assay type: biochemical; settings: GST-HER2, 1 μM ATP
T2 construct: the nucleotides encoding amino acids 679 to 1255 of HER-2; HIS6-Thrombin (His6 tag and thrombin site) (N); purchased Proqinase (Freiburg, Germany)
T2 sequence (P04626 679-1255): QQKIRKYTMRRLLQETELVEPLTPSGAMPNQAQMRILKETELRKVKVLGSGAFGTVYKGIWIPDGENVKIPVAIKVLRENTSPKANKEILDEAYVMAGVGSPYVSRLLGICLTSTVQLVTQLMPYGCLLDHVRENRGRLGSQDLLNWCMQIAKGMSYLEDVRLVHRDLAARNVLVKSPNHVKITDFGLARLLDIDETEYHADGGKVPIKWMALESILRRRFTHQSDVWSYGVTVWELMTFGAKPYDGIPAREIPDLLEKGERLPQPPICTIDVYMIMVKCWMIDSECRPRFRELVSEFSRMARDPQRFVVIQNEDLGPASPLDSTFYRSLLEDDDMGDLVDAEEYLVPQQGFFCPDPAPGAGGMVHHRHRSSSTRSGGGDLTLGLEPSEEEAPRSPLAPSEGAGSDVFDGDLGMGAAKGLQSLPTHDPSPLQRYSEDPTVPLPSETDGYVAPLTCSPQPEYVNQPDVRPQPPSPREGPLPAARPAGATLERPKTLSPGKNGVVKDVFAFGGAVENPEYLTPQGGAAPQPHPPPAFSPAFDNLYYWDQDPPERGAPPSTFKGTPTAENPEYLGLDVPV
Procedure: HER-2 kinase was purified at Proqinase (Freiburg, Germany) from a construct that consisted of a fusion of GST (Glutathione-S-Transferase), HIS6-Thrombin and the nucleotides encoding amino acids 679 to 1255 of HER-2.
A mixture of a 10× kinase reaction buffer (600 mM Hepes at pH 7.5, 30 mM Magnesium Chloride, 0.03 mM Sodium Vanadate and 500 μg/mL PEG 20,000), DTT (1.2 mM final from a 10 mM stock), ATP (1 μM from a 10 mM stock), biotinylated polyGluTyr (1.5 ng/μL final from stock of 1 μg/μL prepared by Upstate Biotechnologies, Lake Placid, N.Y.), Manganese Chloride (3 mM final from a 1 M stock), γ-^33P-ATP (10 μCi/μL stock) and water (70 μL/well) was added to each well of a Streptavidin Flashplate (Cat. # SMP103, NEN, Boston, Mass.).
Test compound stock (1 μL) was added to the appropriate wells. Diluted GSTHER2 kinase (6.7 ng/μL diluted into 50 mM Tris-HCl at pH 8.0 and 0.1% bovine serum albumin) (30 μL) was added (total volume of 200 ng/well) to initiate the reactions.
The reaction plates were incubated at 30° C. for 1 hr. The reaction was terminated by aspirating the reaction mixture from the plate wells and washing the wells three times with a 1×PBS stop buffer (300 μL) and 100 mM EDTA. After the final wash, the same stop buffer (200 μL) was again added to the wells. The plates were then sealed and read on the TopCount scintillation counter. The IC50 was derived according to the procedure described in Example 1.

Aurora-A = target: T3, Aurora-A (Mus musculus, UniProt P97477); test: Aurora-A Screening Assay; assay type: biochemical; settings: murine Aurora-A full length, 10 μM ATP
T3 construct: followed by the full length protein encoding the murine Aurora-A; polyhistidine (N); made in house; host or cells: Sf9 insect cells
T3 sequence (P97477 1-395): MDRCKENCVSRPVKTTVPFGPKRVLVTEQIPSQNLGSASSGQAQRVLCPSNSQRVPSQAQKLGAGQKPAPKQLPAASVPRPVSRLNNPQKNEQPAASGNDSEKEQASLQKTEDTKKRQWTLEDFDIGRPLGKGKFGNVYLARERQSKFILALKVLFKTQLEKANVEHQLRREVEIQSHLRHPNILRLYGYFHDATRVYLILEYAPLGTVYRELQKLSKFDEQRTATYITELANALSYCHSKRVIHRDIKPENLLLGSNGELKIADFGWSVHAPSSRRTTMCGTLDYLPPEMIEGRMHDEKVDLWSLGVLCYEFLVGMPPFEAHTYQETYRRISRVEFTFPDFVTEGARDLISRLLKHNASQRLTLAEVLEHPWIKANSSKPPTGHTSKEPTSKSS
Procedure: as §5, §6
Aurora-A is a fusion protein containing a polyhistidine tag at the N terminus followed by the full length protein encoding the murine Aurora-A (Accession number GB BC014711) expressed and purified from sf9 insect cells. The assay used 400 ng of the N-terminal biotinylated peptide biotin-GRTGRRNSI-amide (Aurora-A) per well.
as §7

HCT-116 colon carcinoma = test: Cell Proliferation Inhibition Assay (14C-thymidine incorporation), HCT116; assay type: cell-based; settings: Homo sapiens, HCT116 cells
Procedure: as §1, §2, §3, §4

IC50 [1] [µM] | IC50 (VEGF-R2) [µM] | IC50 (A375 malignant melanoma) [µM] | IC50 (HER-2) [µM] | IC50 (Aurora-A) [µM] | IC50 (HCT-116 colon carcinoma) [µM] | SMILES
> 10 | > 100 | > 10 | > 100 | > 10 | > 10 | Cc1c(C(=O)NCCN2CCOCC2)sc2ncnc(Nc3ccc(NC(=O)c4ccccc4)cc3)c12 [Cpd 25, 4-(4-benzoylamino-phenylamino)-5-methyl-thieno[2,3-d]pyrimidine-6-carboxylic acid (2-morpholin-4-yl-ethyl)-amide]
> 10 | > 100 | > 10 | > 10 | > 1 | > 10 | Cc1c(C(=O)NCCCN2CCOCC2)sc2ncnc(Nc3ccc(NC(=O)c4ccccc4)cc3)c12 [Cpd 26, 4-(4-benzoylamino-phenylamino)-5-methyl-thieno[2,3-d]pyrimidine-6-carboxylic acid (3-morpholin-4-yl-propyl)-amide]
